Measured values published in patent US20070148220A1, “Liposomes and liposomal compositions for vaccination and drug delivery” (priority 2003, published 2007).

Tests used:
murine B cells = assay: Induction of B cell proliferation (CFSE); assay type: cell-based; conditions: ODN 5 to 200 nmol/l, free or AVE3-encapsulated
From the text: FIG. 12: Comparison of the biological activity of CpG-PTO and CpG-PDO. Cells were labeled with CFSE before being stimulated for 48 hrs with 0 to 0.2 μmol/l end concentration of ODNs in saline or liposomal. (black diamonds) CpG-PTO in saline; (grey diamonds) CpG-PDO in saline; (black squares) liposomal CpG-PTO; (grey squares) liposomal CpG-PDO. Dead cells were excluded by propidium iodide staining.
CpG oligonucleotides have been described to induce B cell proliferation. The effects of free or encapsulated CpG phosphorothioate oligonucleotides (CpG-PTO) (see example 6) on proliferation of murine B cells (FIG. 11A) were compared. […] Induction of B cell proliferation was dependent on the concentration of applied ODN with strong B cell proliferation observed between 50 to 200 nmol/l encapsulated ODN. Similar values were obtained for CpG-ODN encapsulated at different concentrations (between 4.6 μg/μmol lipid to 93.5 μg/μmol lipid). No induction of B cell proliferation was observed using free or encapsulated non-CpG-ODN (FIG. 11B).
CpG phosphorothioate (CpG-PTO) or CpG phosphodiester (CpG-PDO) oligonucleotides (see example 6) were analyzed for the induction of B cell proliferation in free or AVE3-encapsulated form using ODN concentrations between 5 to 200 nmol/l. […]

[1] = tested on: B16.F1 and TRP-2 pulsed EL4; assay: CTL cytotoxicity against TRP-2 presenting cells after immunization; assay type: in vivo, mouse; conditions: free versus liposomal
Description: In another set of experiments antigen-specificity of cytotoxic T lymphocytes after liposomal vaccination (FIG. 20) was analyzed. Mice were immunized with AVE3-encapsulated or free TRP-2 and CpG-PTO as described above. Cells prepared from lymph nodes were then tested for cytotoxicity using as targets the mouse melanoma cell line B16.F1 know to present TRP-2 in the context of H-2K^b, TRP-2 pulsed EL4 cells, OVA peptide-pulsed EL4 cells, unpulsed EL4 cells, and YAC-1 cells to exclude a potential NK cell activity. […] As described above 10-fold higher amounts of free TRP-2 and 4-fold higher amounts of CpG-PTO were necessary to induce the same CTL response.

[2] = tested on: TRP-2-specific T cells (splenocytes); assay: Avidity of TRP-2-specific T cells (splenocyte proliferation, ATPlite); assay type: in vivo, BL6 mice; conditions: after two immunizations
Description: FIG. 22: Vaccination with liposomal-encapsulated TRP-2 plus CpG-PTO. The vaccination with liposomal-encapsulated TRP-2 plus CpG-PTO generates high avidity T cells. BL6 mice were vaccinated with 10 μg liposomal or 100 μg free TRP-2 plus 5 nmol free CpG ODN at weekly intervals up to three times. Lymphocytes were isolated from spleen (A) and lymph node (LN) (B) one week after last immunization and an IFNγ capture assay was performed as described. C, Avidity of T cells after vaccination with liposomal and free TRP-2 plus CpG ODN. One week after the last immunization splenocytes were nylon-wool enriched and cultured for 5 days in vitro in the presence of high dose (10^−6 mol/l) or low dose TRP-2 (10^−9 mol/l) or control peptide […] (10^−6 mol/l) with low dose IL2 (30 U/ml). Proliferation was estimated by a luminescence assay-based detection system measuring ATP content. Proliferation of splenocytes in the presence of anti-TCR plus anti-CD28 mAb was set to 100%. Representative data from one of two similar experiments are shown.
Finally, the avidity of TRP-2-specific CTLs in animals immunized with liposomal or free TRP-2, respectively (FIG. 21) was compared. […] In parallel to the IFNγ secretion assay nylon-wool column enriched splenocytes were cultured with high (10^−6 mol/l) and low dose TRP-2 (10^−9 mol/l), for 5 days and cell proliferation was determined using the ATPlite™-M system. […]

| Substance | induction of B cell proliferation (murine B cells) | higher amounts necessary to induce the same CTL response [1] [fold] | avidity of T cells, liposomal vs. free TRP-2 [2] |
| --- | --- | --- | --- |
| non-CpG-ODN: non-CpG-1982-PTO, 5′-TCCAGGACTTCTCTCAGGT-3′, free (DNA, all phosphorothioate, methylation of C not given here) | No induction |  |  |
| free TRP-2: antigenic peptide TRP-2 (SVYDFFVWL), not encapsulated |  | 10 | more polyclonal response of splenocytes consisting of low and high avidity T cells |
